Where “and” joins values, the source holds several entries; their conditions need not be identical. Equal values may be shown once. Inconclusive results and toxic doses are left out.
Tested on: BDF1 mice, B16 melanoma ip, median survival T/C
Assay: NCI In Vivo Anticancer Drug Screen. Data for tumor model B16 Melanoma (intraperitoneal) in B6D2F1 (BDF1) mice
Conditions: endpoint: median survival time, higher = longer survival
Outline: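 The ratio T/C compares compound-treated mice with vehicle-treated controls, using survival or tumor size as the endpoint in a transplantable tumor model.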

[1] = dose: 50.0 mg/kg/injection, schedule: Q01DX009 (ip), vehicle: saline
[2] = dose: 100.0 mg/kg/injection, schedule: Q01DX009 (ip), vehicle: saline
[3] = dose: 200.0 mg/kg/injection, schedule: Q01DX009 (ip), vehicle: saline
[4] = dose: 0.78 mg/kg/injection, schedule: Q01DX009 (ip), vehicle: Klucel (hydroxypropylcellulose) (HPC)
[5] = dose: 3.12 mg/kg/injection, schedule: Q01DX009 (ip), vehicle: Klucel (hydroxypropylcellulose) (HPC)
[6] = dose: 25.0 mg/kg/injection, schedule: Q01DX009 (ip), vehicle: saline

For `CC1CCN(c2ccc([N+](=O)[O-])cc2)CC1`, the T/C (dose: 100.0 mg/kg/injection, schedule: Q01DX009 (ip), vehicle: Klucel (hydroxypropylcellulose) (HPC)) was 106 % of control, the T/C (dose: 200.0 mg/kg/injection, schedule: Q01DX009 (ip), vehicle: Klucel (hydroxypropylcellulose) (HPC)) was 87 % of control and the T/C (dose: 400.0 mg/kg/injection, schedule: Q01DX009 (ip), vehicle: Klucel (hydroxypropylcellulose) (HPC)) was 96 % of control.
`COc1cc([C@@H]2c3cc4c(cc3[C@@H](OC3OC5CO[C@@H](c6cccs6)OC5C(O)C3O)[C@H]3COC(=O)[C@H]23)OCO4)cc(OC)c1O` (some centres undefined) was tested, and the T/C (dose: 0.25 mg/kg/injection, schedule: Q01DX009 (ip), vehicle: clinical formulation) was 183 % of control, the T/C (dose: 0.25 mg/kg/injection, schedule: Q01DX009 (ip), vehicle: saline) was 171 % of control and the T/C (dose: 0.5 mg/kg/injection, schedule: Q01DX009 (ip), vehicle: clinical formulation) was 223 % of control. For the same compound, the T/C (dose: 0.5 mg/kg/injection, schedule: Q01DX009 (ip), vehicle: saline) was 166 % of control and 214 % of control, the T/C (dose: 0.5 mg/kg/injection, schedule: Q01DX009 (ip), vehicle: water) was 173 % of control and the T/C (dose: 1.0 mg/kg/injection, schedule: Q01DX009 (ip), vehicle: clinical formulation) was 269 % of control. For the same compound, the T/C (dose: 1.0 mg/kg/injection, schedule: Q01DX009 (ip), vehicle: saline) was 185 % of control and 254 % of control, the T/C (dose: 1.0 mg/kg/injection, schedule: Q01DX009 (ip), vehicle: water) was 178 % of control and the T/C (dose: 2.0 mg/kg/injection, schedule: Q01DX009 (ip), vehicle: clinical formulation) was 285 % of control. For the same compound, the T/C (dose: 2.0 mg/kg/injection, schedule: Q01DX009 (ip), vehicle: saline) was 204 % of control and 285 % of control, the T/C (dose: 2.0 mg/kg/injection, schedule: Q01DX009 (ip), vehicle: water) was 204 % of control and the T/C (dose: 4.0 mg/kg/injection, schedule: Q01DX009 (ip), vehicle: saline) was 257 % of control.
For `CC(C)(C)OC(=O)NC(CCC(N)=O)C(=O)O` (centres undefined), the T/C [1] was 96 % of control, the T/C [2] was 97 % of control and the T/C [3] was 96 % of control.
For `CC(Cc1ccccc1)NC(=O)CCNNC(=O)c1ccncc1` (centres undefined), the T/C (dose: 0.39 mg/kg/injection, schedule: Q01DX009 (ip), vehicle: Klucel (hydroxypropylcellulose) (HPC)) was 95 % of control, the T/C [4] was 87 % of control and the T/C (dose: 1.56 mg/kg/injection, schedule: Q01DX009 (ip), vehicle: Klucel (hydroxypropylcellulose) (HPC)) was 90 % of control. The T/C [5] was 95 % of control, the T/C (dose: 6.25 mg/kg/injection, schedule: Q01DX009 (ip), vehicle: Klucel (hydroxypropylcellulose) (HPC)) was 89 % of control and the T/C (dose: 12.5 mg/kg/injection, schedule: Q01DX009 (ip), vehicle: Klucel (hydroxypropylcellulose) (HPC)) was 91 % of control.
For `Clc1cc(Cl)c(C[N+]23CN4CN(CN(C4)C2)C3)cc1Cl`, the T/C [6] was 117 % of control, the T/C [1] was 108 % of control and the T/C [2] was 111 % of control. For the same compound, the T/C [3] was 122 % of control.
For `COc1ccc2c(c1OC)C13CCCCC1C(C2)[N+](C)(C)CC3` (centres undefined), the T/C (dose: 0.02 mg/kg/injection, schedule: Q01DX009 (ip), vehicle: Klucel (hydroxypropylcellulose) (HPC)) was 91 % of control, the T/C (dose: 0.04 mg/kg/injection, schedule: Q01DX009 (ip), vehicle: Klucel (hydroxypropylcellulose) (HPC)) was 89 % of control and the T/C [4] was 87 % of control. For the same compound, the T/C [5] was 86 % of control.
For `Cc1ccccc1NC(=O)Nc1ccccc1F`, the T/C (dose: 100.0 mg/kg/injection, schedule: Q04DX003 (ip), vehicle: Klucel (hydroxypropylcellulose) (HPC)) was 93 % of control, the T/C (dose: 200.0 mg/kg/injection, schedule: Q04DX003 (ip), vehicle: Klucel (hydroxypropylcellulose) (HPC)) was 93 % of control and the T/C (dose: 400.0 mg/kg/injection, schedule: Q04DX003 (ip), vehicle: Klucel (hydroxypropylcellulose) (HPC)) was 100 % of control.
With `CN(C)CCOc1ccccc1Cc1ccccc1` the T/C (dose: 12.5 mg/kg/injection, schedule: Q01DX009 (ip), vehicle: saline) was 121 % of control, the T/C [6] was 106 % of control and 107 % of control and the T/C [1] was 95 % of control and 100 % of control. For the same compound, the T/C [2] was 105 % of control and the T/C [3] was 94 % of control.
In the case of `Nc1ccc(C(=O)O)c(O)c1`, the T/C (dose: 9.3 mg/kg/injection, schedule: Q01DX009 (ip), vehicle: saline with Tween-80) was 98 % of control, the T/C (dose: 18.7 mg/kg/injection, schedule: Q01DX009 (ip), vehicle: saline with Tween-80) was 99 % of control and the T/C (dose: 37.5 mg/kg/injection, schedule: Q01DX009 (ip), vehicle: saline with Tween-80) was 98 % of control. The T/C (dose: 75.0 mg/kg/injection, schedule: Q01DX009 (ip), vehicle: saline with Tween-80) was 89 % of control.
For `CCN(CC)CCN(C)CCN(CC)CC`, the T/C [1] was 100 % of control and the T/C [2] was 94 % of control.
For `[Cl][Ni][Cl].[NH-]CCN1CC1.[NH-]CCN1CC1`, the T/C (dose: 0.78 mg/kg/injection, schedule: Q01DX009 (ip), vehicle: saline) was 98 % of control, the T/C (dose: 1.56 mg/kg/injection, schedule: Q01DX009 (ip), vehicle: saline) was 97 % of control and the T/C (dose: 3.12 mg/kg/injection, schedule: Q01DX009 (ip), vehicle: saline) was 90 % of control.

Reference: PubChem BioAssay AID192 (DTP/NCI, 2004)
